In US10138225B2 (Achillion Pharmaceuticals, Inc., priority 2015, dated 2018):

Molecular target: T1, Human Factor D (Homo sapiens, UniProt P00746)
T1 construct: purified from human serum; purchased Complement Technology, Inc; host or cells: human serum (natural protein, not recombinant)
Test: Human Factor D Assay
Type: biochemical
Settings: Table 1; Factor D 80 nM, substrate Z-L-Lys-SBzl; read-out: IC50
Summary of the method: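 Serum-purified human factor D (80 nM final) was preincubated with compound for 5 min at room temperature in 50 mM Tris, 1 M NaCl, pH 7.5. Z-L-Lys-SBzl and DTNB were added at 100 μM each, and A405 was read every 30 s for 30 min. IC50 came from nonlinear regression of reaction rates versus compound concentration.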

T1 sequence (P00746 26-253): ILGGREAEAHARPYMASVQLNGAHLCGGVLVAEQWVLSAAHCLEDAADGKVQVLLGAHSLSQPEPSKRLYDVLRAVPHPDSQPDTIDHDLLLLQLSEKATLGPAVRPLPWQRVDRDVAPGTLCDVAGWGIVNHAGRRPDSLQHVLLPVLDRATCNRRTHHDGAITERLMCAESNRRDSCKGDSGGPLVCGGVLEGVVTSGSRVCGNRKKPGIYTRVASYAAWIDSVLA

SMILES	IC50 [µM]
CC(=O)c1cn(CC(=O)N2[C@@H]3C[C@@H]3C[C@H]2C(=O)Nc2cccc(OC(F)(F)F)c2F)c2ccc(NC(=O)NC3CC3)cc12 [Compound 11, (1R,3S,5R)-2-(2-(3-acetyl-5-(3-cyclopropylureido)-1H-indol-1-yl)acetyl)-N-(2-fluoro-3-(trifluoromethoxy)phenyl)-2-azabicyclo[3.1.0] hexane-3-carboxamide]	< 1
NC(=O)c1nn(CC(=O)N2C[C@H](F)C[C@H]2C(=O)Nc2cccc(-c3ncccc3Cl)c2F)c2ccc(NC(=O)N3CCCC(F)(F)C3)cc12 [Compound 29, 1-(2-((2S,4R)-2-(3-(3-chloropyridin-2-yl)-2-fluorophenylcarbamoyl)-4-fluoropyrrolidin-1-yl)-2-oxoethyl)-5-(3,3-difluoropiperidine-1-carboxamido)-1H-indazole-3-carboxamide]	< 1
COC(=O)C1CCN(C(=O)c2ccc3c(C(C)=O)cn(CC(=O)N4C[C@H](F)C[C@H]4C(=O)NCc4cccc(Cl)c4F)c3c2)C1 (stereo partly drawn) [Compound 51, methyl 1-(3-acetyl-1-(2-((2S,4R)-2-(3-chloro-2-fluorobenzylcarbamoyl)-4-fluoropyrrolidin-1-yl)-2-oxoethyl)-1H-indole-6-carbonyl)pyrrolidine-3-carboxylate]	< 1
CC(=O)c1cn(CC(=O)N2C[C@H](F)C[C@H]2C(=O)NCc2cccc(Cl)c2F)c2ccc(NC(=O)NCC(F)(F)F)cc12 [Compound 21, (2S,4R)-1-(2-(3-acetyl-5-(3-(2,2,2-trifluoroethyl)ureido)-1H-indol-1-yl)acetyl)-N-(3-chloro-2-fluorobenzyl)-4-fluoropyrrolidine-2-carboxamide]	< 1
CC(=O)c1cn(CC(=O)N2C[C@H](F)C[C@H]2C(=O)NCc2cccc(Cl)c2F)c2cc(C(=O)NS(=O)(=O)c3ccccc3)ccc12 [Compound 53, 3-acetyl-1-(2-((2S,4R)-2-(3-chloro-2-fluorobenzylcarbamoyl)-4-fluoropyrrolidin-1-yl)-2-oxoethyl)-N-(phenylsulfonyl)-1H-indole-6-carboxamide]	< 1

Same assay, conditions: Table 3; factor D inhibition assay; read-out: IC50 (Stars)

IC50 [µM]	SMILES
> 10	CC(=O)c1cn(CC(=O)N2C[C@H](F)C[C@H]2C(=O)NCCCCc2ccccc2)c2ccc(C(=O)NS(=O)(=O)C3CC3)cc12 [Compound 195, 3-acetyl-N-(cyclopropylsulfonyl)-1-(2-((2S,4R)-4-fluoro-2-((4-phenylbutyl)carbamoyl)pyrrolidin-1-yl)-2-oxoethyl)-1H-indole-5-carboxamide]
